One series addresses MCT1 (Homo sapiens (Human), UniProt P53985). The series can be described thus: Assay 4: MCT1-mediated lactate transport in BT20 breast cancer cells. Type of series: cell-based. The conditions noted are these: lactate transport (Table 27). The protocol: Preparing BCECF-Loaded Cells
10 µL of a 30 mM DMSO stock of BCECF-AM ester (Life Technologies) is added and the cells are incubated at 37° C. for 5 min. The cells are pelleted (300 g, 5 min), washed once with 1 mL Tyrode's Solution, pH 7.4, re-pelleted (300 g, 5 min), and resuspended in 1 mL Tyrode's Solution, pH 7.4.
Assay 4: MCT1-Mediated Lactate Transport in BT20 Breast Cancer Cells.
Preparation of BCECF loaded cells are as described for Assay 1. Lactate transport assay is as described for Assay 1, except 10 mM L-lactate (rather than 50 mM) is added.

Series [1] in a line: Pharmacokinetic assay in mouse (IV 3 mg/kg, PO 10 mg/kg). Type of series: in vivo. To be noted: male, CD1, mouse, plasma, read-out: Mouse F (%). From the text: (§1) Pharmacokinetic Assays in Mouse and Rat
(§2) The following are assays that may be used to evaluate the pharmacokinetic properties of Formula (I) in mouse or rat. The assays follow a common procedure recited below.
(§3) 1. […] For PO (oral gavage), DMSO/PEG400 (10:90). Formulations freshly prepared on the day of dosing or prior to dosing. Storage at room temperature.
(§4) 2. Test Species: For Mouse: Male CD1 strain, approximately 6-8 weeks in age, approximately 20-30 g. For Rat: Male Sprague-Dawley strain, approximately 6-8 weeks in age, approximately 200-300 g.
(§5) 3. Dose Level: For IV, 3 mg/kg. For PO, 10 mg/kg.
(§6) 4. Number of animals: 3 per assay.
(§7) 5. PK time points: For IV (plasma): 5 min, 15 min, 1, 2, 4, 6, 8, 24 h post dose. For PO (plasma): 15 min, 30 min, 1, 2, 4, 6, 8, 24 h post dose.
(§8) 6. Blood Sample Collection and Processing. Blood was collected (˜0.2 mL per time point) from jugular vein. Blood of each sample was transferred into plastic micro centrifuge tubes containing anticoagulant of EDTA-K2. Blood samples were centrifuged at 2,000 g for 5 minutes at 4° C. to obtain plasma.
(§9) 7. Samples Analysis: Plasma samples were analyzed using LC/MS/MS method, and pharmacokinetic parameters (half-life: t1/2; oral bioavailability: F; volume of distribution: Vss).

Series [2] can be described thus: Pharmacokinetic assay in rat (IV 3 mg/kg, PO 10 mg/kg). In kind it is in vivo. To be noted: male, Sprague-Dawley, plasma, read-out: Rat F (%).
Source text: as §1, §2, §3, §4, §5, §6, §7, §8, §9

The test system of series [3] is CFA-induced arthritis. Put plainly: Adjuvant-induced arthritis model in rat: Difference of Weight Bearing test (DWB). Type of series: in vivo. The conditions noted are these: SD rat, PO 3 days post CFA, compared to dexamethasone.
Series [4] has as its system CFA-induced arthritis. Put plainly: Adjuvant-induced arthritis model in rat: Mechanical Allodynia test (MA). Type of series: in vivo. To be noted: SD rat, PO 3 days post CFA, compared to dexamethasone.
A short description of series [5]: Metabolic stability in human liver microsomes (in vitro t1/2). In kind it is in vitro ADME. The conditions noted are these: human liver microsomes 0.5 mg/mL, 2 μM compound, % remaining at 60 min. The protocol: (§10) Metabolic Stability Assays The following are assays that may be used to evaluate the metabolic stability of compounds of Formula (I) in human, rat, or mouse microsomes. The assays follow a common procedure recited below. 1. […] Two separated experiments were performed as follows. a) With NADPH: 10 μL of 20 mg/mL liver microsomes and 40 μL of 10 mM NADPH were added to the incubations. […] The final concentration of microsomes was 0.5 mg/mL. 3. The reaction was started with the addition of 4 μL of 200 μM control compound or test compound solutions. Verapamil was used as positive control in this study. The final concentration of test compound or control compound was 2 μM. 4. Aliquots of 50 μL were taken from the reaction solution at 0, 15, 30, 45 and 60 min. […] Samples were centrifuged at 3,220 g for 40 minutes. A 90 μL aliquot of the supernatant was mixed with 90 μL of ultra-pure H2O and then used for LC-MS/MS analysis. 5. Data analysis. All calculations were carried out using Microsoft Excel. Peak areas were determined from extracted ion chromatograms. The slope value, k, was determined by linear regression of the natural logarithm of the remaining percentage of the parent drug vs. incubation time curve. The in vitro half-life (in vitro t1/2) was determined from the slope value: in vitro t1/2=−(0.693)/k.

A short description of series [6]: Metabolic stability in rat liver microsomes (in vitro t1/2). In kind it is in vitro ADME. To be noted: rat liver microsomes 0.5 mg/mL, 2 μM compound; for Rat microsome % 60 min: % remaining at 60 min. The method, then: as §10
Series [7] is described as follows: Metabolic stability in mouse liver microsomes (in vitro t1/2). In kind it is in vitro ADME. To be noted: mouse liver microsomes 0.5 mg/mL, 2 μM compound; for Mouse microsome % 60 min: % remaining at 60 min. The method, then: as §10

Some results are limits rather than exact numbers.

MCT1, sequence (P53985 whole entry): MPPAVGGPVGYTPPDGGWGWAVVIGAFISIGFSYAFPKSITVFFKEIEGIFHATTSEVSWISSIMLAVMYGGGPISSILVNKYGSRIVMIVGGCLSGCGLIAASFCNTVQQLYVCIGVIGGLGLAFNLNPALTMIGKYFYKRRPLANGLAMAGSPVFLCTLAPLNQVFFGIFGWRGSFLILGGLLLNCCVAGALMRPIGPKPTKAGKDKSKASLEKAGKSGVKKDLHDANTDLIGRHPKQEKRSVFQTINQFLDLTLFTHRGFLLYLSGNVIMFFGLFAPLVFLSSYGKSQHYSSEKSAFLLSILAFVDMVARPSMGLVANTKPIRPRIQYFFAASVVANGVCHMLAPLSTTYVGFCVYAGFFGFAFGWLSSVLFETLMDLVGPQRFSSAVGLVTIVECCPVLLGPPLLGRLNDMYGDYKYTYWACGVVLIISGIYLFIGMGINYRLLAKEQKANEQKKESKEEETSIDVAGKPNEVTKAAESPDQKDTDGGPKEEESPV
MCT1, sequence (P35613 140-385 partner): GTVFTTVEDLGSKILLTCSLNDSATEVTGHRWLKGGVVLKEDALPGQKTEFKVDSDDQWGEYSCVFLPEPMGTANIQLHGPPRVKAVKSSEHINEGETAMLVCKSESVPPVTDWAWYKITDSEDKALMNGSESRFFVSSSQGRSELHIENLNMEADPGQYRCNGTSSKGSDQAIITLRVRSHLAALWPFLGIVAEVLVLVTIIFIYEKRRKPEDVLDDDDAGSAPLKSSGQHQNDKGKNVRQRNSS

On to `CC(C)(OCc1cc(-c2cccc(OCC(F)(F)F)c2)n(Cc2ccccc2Cl)n1)C(=O)O` [Example 43, 2-([1-[(2-Chlorophenyl)methyl]-5-[3-(2,2,2-trifluoroethoxy)phenyl]1H-pyrazol-3-yl]methoxy)-2-methylpropanoic acid], for which the IC50 against MCT1 is more than 33000 nM.
Take `CC[C@@](C)(OCc1cc(-c2cccc(OC3CC3)c2)n(-c2ccccc2N2CCC2)n1)C(=O)O` [Example 266]: the bioavailability in series [1] and in series [2] was 100% each time. Also, the “Difference in Weight Bearing, Minimal Efficacious Dose” value with CFA-induced arthritis [3] is 3 mg/kg. The “Mechanical Allodynia (Von Frey), Minimal Efficacious Dose” value in the series on CFA-induced arthritis [4] is 3 mg/kg.
As to `CC(C)(OCc1cc(-c2cscn2)n(Cc2ccccc2Cl)n1)C(=O)O` [Example 47, 2-([1-[(2-Chlorophenyl)methyl]-5-(1,3-thiazol-4-yl)-1H-pyrazol-3-yl]methoxy)-2-methylpropionic acid], the concentration for half-maximal inhibition (IC50) on MCT1 was more than 100000 nM.
On MCT1, `CC(C)(OCc1cc(-c2cccc(CN3CCOCC3)c2)n(Cc2ccccc2Cl)n1)C(=O)O` [Example 40, 2-([1-[(2-Chlorophenyl)methyl]-5-[3-(morpholinomethyl)phenyl]1H-pyrazol-3-yl]methoxy)-2-methylpropanoic acid] gave a half-inhibitory concentration (IC50) of more than 100000 nM.
Compound `CC(C)(OCc1cc(-c2ccsc2)n(Cc2ccccc2Cl)n1)C(=O)O` [Example 24, 2-([1-[(2-Chlorophenyl)methyl]-5-(thien-3-yl)1H-pyrazol-3-yl]methoxy)-2-methylpropanoic acid] showed an IC50 against MCT1 of more than 100000 nM.
In the case of `CCn1ncc2ccc(-c3cc(COC(C)(C)C(=O)O)nn3-c3ccccc3N3CCC3)cc21` [Example 228, 2-([1-[2-(Azetidin-1-yl)phenyl]-5-(1-ethyl-1H-indazol-6-yl)-1H-pyrazol-3-yl]methoxy)-2-methylpropanoic acid], the “Human microsome % 60 min” value in series [5] was 71%. The “Rat microsome % 60 min” value in series [6] worked out at 91%. Moreover, the “Mouse microsome % 60 min” value in series [7] is given as 96%. The bioavailability in series [1] is 100%; in series [2], 94%.
`CC(C)(OCc1cc(Nc2ccccc2)n(Cc2ccccc2Cl)n1)C(=O)O` [Example 75, 2-([1-[(2-chlorophenyl)methyl]-5-(phenylamino)-1H-pyrazol-3-yl]methoxy)-2-methylpropanoic Acid] yielded an IC50 at MCT1 of more than 100000 nM.
Same read-out and setting: next, `CC(C)NC(=O)c1cccc(-c2cc(COC(C)(C)C(=O)O)nn2Cc2ccccc2Cl)c1` [Example 74, 2-([1-[(2-Chlorophenyl)methyl]-5-[3-[(propan-2-yl)carbamoyl]phenyl]-1H-pyrazol-3-yl]methoxy)-2-methyl-propanoic acid]: more than 100000 nM; `CC(C)(OCc1cc(-c2cccc(OC(F)(F)F)c2)n(Cc2ccccc2Cl)n1)C(=O)O` [Example 34, 2-([1-[(2-Chlorophenyl)methyl]-5-[3-(trifluoromethoxy)phenyl]1H-pyrazol-3-yl]methoxy)-2-methylpropanoic acid]: more than 11000 nM.
With `CC(C)CNc1cccc(-c2cc(COC(C)(C)C(=O)O)nn2Cc2ccccc2Cl)c1` [Example 73, 2-([1-[(2-chlorophenyl)methyl]-5-[3-[(2-methylpropyl)amino]phenyl]-1H-pyrazol-3-yl]methoxy)-2-methyl-propanoic acid], the IC50 against MCT1 was more than 11000 nM.
For the compound `Cn1ncc2cccc(-n3nc(COC(C)(C)C(=O)O)cc3-c3cccc(OCC(C)(C)C)c3)c21` [Example 167, 2-([5-[3-(2,2-dimethylpropoxy)phenyl]-1-(1-methyl-1H-indazol-7-yl)-1H-pyrazol-3-yl]methoxy)-2-methyl-propanoic acid], in series [5], the “Human microsome % 60 min” value amounted to 84%. In series [6], the “Rat microsome % 60 min” value worked out at 72%. Further, the “Mouse microsome % 60 min” value in series [7] came out at 97%. For the same compound, the bioavailability worked out at 24% in series [1] and 72% in series [2].
Turning to `CCn1ncc2ccc(-c3cc(CO[C@@](C)(CC)C(=O)O)nn3Cc3ccccc3Cl)cc21` [Example 257, (S)-2-((1-(2-chlorobenzyl)-5-(1-ethyl-1H-indazol-6-yl)-1H-pyrazol-3-yl)methoxy)-2-methylbutanoic acid], the “Human microsome % 60 min” value in series [5] is 96%. Further, in series [6] (in vitro t1/2), the “Rat microsome t1/2, min” value was “∞”. Further, the “Mouse microsome t1/2, min” value in series [7] (in vitro t1/2) is reported as “∞”. Also, the bioavailability in series [1] and in series [2] was 76% in each case.
In the case of `CC(C)(OCc1cc(-c2cccc(S(C)(=O)=O)c2)n(Cc2ccccc2Cl)n1)C(=O)O` [Example 70, 2-([1-[(2-Chlorophenyl)methyl]-5-(3-methanesulfonylphenyl)-1H-pyrazol-3-yl]methoxy)-2-methylpropanoic acid], the IC50 against MCT1 is more than 100000 nM.
Regarding `CCOc1ccccc1Cn1nc(COC(C)(C)C(=O)O)cc1-c1cc(OC)cc(OC)c1` [Example 211, 2-([5-(3,5-Dimethoxyphenyl)-1-[(2-ethoxyphenyl)methyl]-1H-pyrazol-3-yl]-methoxy)-2-methylpropanoic acid], in series [5], the “Human microsome % 60 min” value stood at 78%. Moreover, in series [6], the “Rat microsome % 60 min” value is reported as 57%. Moreover, the “Mouse microsome % 60 min” value in series [7] is listed as 43%. The values for the bioavailability in series [1] and in series [2] were 57% and 55%, respectively.
In the case of `CCn1ncc2ccc(-c3cc(CO[C@](C)(CC)C(=O)O)nn3-c3ccccc3N3CCC3)cc21` [Example 269, (2R)-2-([1-[2-(Azetidin-1-yl)phenyl]-5-(1-ethyl-1H-indazol-6-yl)-1H-pyrazol-3-yl]methoxy)-2-methylbutanoic acid], the bioavailability in series [1] came out at 100%.
Consider `CC(C)C(=O)Nc1cccc(-c2cc(COC(C)(C)C(=O)O)nn2Cc2ccccc2Cl)c1` [Example 69, 2-([1-[(2-Chlorophenyl)methyl]-5-[3-(2-methylpropanamido)phenyl]-1H-pyrazol-3-yl]methoxy)-2-methylpropanoic acid], for which the IC50 on MCT1 is more than 100000 nM.
Turning to `COc1cccc(-c2cc(COC(C)(C)C(=O)O)nn2-c2ccccc2Cl)c1` [Example 57, 2-([1-(2-chlorophenyl)-5-(3-methoxyphenyl)-1H-pyrazol-3-yl]methoxy)-2-methylpropanoic acid], on MCT1, the IC50 was more than 133000 nM. Besides, the “Human microsome % 60 min” value in series [5] came out at 80%. In addition, the “Mouse microsome % 60 min” value in series [7] is 100%.
As to `Cn1ncc2cccc(-n3nc(COC(C)(C)C(=O)O)cc3-c3cccc(OC4CC4)c3)c21` [Example 191, 2-([5-(3-Cyclopropoxyphenyl)-1-(1-methyl-1H-indazol-7-yl)-1H-pyrazol-3-yl]methoxy)-2-methylpropanoic acid], the “Human microsome % 60 min” value in series [5] came out at 98%. Moreover, the “Rat microsome % 60 min” value in series [6] is 94%. In series [7], the “Mouse microsome % 60 min” value is on record as 97%. In addition, the bioavailability in series [2] worked out at 97%. Besides, the “Difference in Weight Bearing, Minimal Efficacious Dose” value in the series on CFA-induced arthritis [3] is listed as more than 10 mg/kg. In addition, in the series with CFA-induced arthritis [4], the “Mechanical Allodynia (Von Frey), Minimal Efficacious Dose” value was more than 10 mg/kg.
On MCT1, `COc1cccc(-c2cc(COC(C)(C)C(=O)O)nn2Cc2ccccc2)c1` [Example 53, 2-([1-benzyl-5-(3-methoxyphenyl)-1H-pyrazol-3-yl]methoxy)-2-methyl-propanoic acid] gave an IC50 of more than 100000 nM.

Values taken from patent US11292767B2, “Heterocyclic inhibitors of MCT4” (Vettore, LLC, priority 2016, dated 2022).
